The values below come from patent publication US20230241243A1, “CARRIER PARTICLE-DRUG CONJUGATES, SELF-IMMOLATIVE LINKERS, AND USES THEREOF” (priority 2020, published 2023).

The test system of one data set is Human KB cells. Put plainly: Cell viability assay of payloads (CellTiter-Glo 2.0). The class given is cell-based. The settings on record: 168 h, read-out: IC50 values (diluted in RPMI medium). The protocol: Method: Human KB cells (ATCC® CCL-17™) were cultured in folic acid free rpmi-1640 medium (ThermoFisher, GIBCO) for at least 7 days before the study. The cells were seeded in opaque 96-well plates and allowed to attach overnight (cell density was carefully controlled to be 3,000 cells per well at the time of assay). After that, cells were treated with drug analogs (suspended in the same RPMI-1640 medium) at a concentration of zero to 1,000 nM. After 7 days, cell viability was assessed using the CellTiter-Glo® 2.0 assay (Promega) according to the manufacturer's instructions. The percent of viable cells at each concentration was calculated by normalizing the luminescence values to the untreated control. The half-maximal inhibitory concentration (IC50) of the payloads were plotted and fitted by using the Prism 8 software (GraphPad). Table 2 provides the IC50 of the payloads of the present disclosure (‘+’ indicates 1-9.9 nm; ‘++’ indicates 10-100 nm).

Data set [1] in a line: Drug-release assay of nanoparticle-conjugated linker-payloads under cleavage conditions (Cat-B, redox-responsive or pH-sensitive cleaving study), RP-HPLC. Type of data set: in vitro ADME. As to conditions: linker-payload conjugated to DBCO-functionalized silica nanoparticle, 37° C., 24 hours. A digest of the protocol: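 Azide linker-drugs were click-conjugated to DBCO-functionalized ultrasmall silica nanoparticles and incubated under cleavage conditions, e.g., Cat-B in 25 mM MES, 5 mM DTT, pH 5.0. Released versus non-released drug was quantified by C18 RP-HPLC peak area. Gradients were 0.01% TFA water/acetonitrile for protease/redox linkers and water/acetonitrile for pH-sensitive linkers.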

SMILES strings stand for the structures. Structures can show the parent of a compound that is named as a salt. Where two headings read alike, the source gives them in different places.

In the case of `CC[C@@]1(O)C(=O)OCc2c1cc1n(c2=O)Cc2c-1nc1cc(F)c(C)c3c1c2[C@@H](NC(=O)CSSC(C)(C)CN)CC3` [Example 454, 2-((1-amino-2-methylpropan-2-yl)disulfaneyl)-N-((1S,9S)-9-ethyl-5-fluoro-9-hydroxy-4-methyl-10,13-dioxo-2,3,9,10,13,15-hexahydro-1H,12H-benzo[de]pyrano[3′,4′:6,7]indolizino[1,2-b]quinolin-1-yl)acetamide 2,2,2-trifluoroacetic acid salt], the IC50 in the data set with Human KB cells (Homo sapiens, KB) lay within 10 to 100 nM. For the compound `CC[C@@]1(O)C(=O)OCc2c1cc1n(c2=O)Cc2c-1nc1cc(F)c(C)c3c1c2[C@@H](NC(=O)CS)CC3` [Example 452, N-((1S,9S)-9-ethyl-5-fluoro-9-hydroxy-4-methyl-10,13-dioxo-2,3,9,10,13,15-hexahydro-1H,12H-benzo[de]pyrano[3′,4′:6,7]indolizino[1,2-b]quinolin-1-yl)-2-mercaptoacetamide], in the data set on Human KB cells (Homo sapiens, KB), the IC50 fell in the range of 10 to 100 nM. For `CCc1c2c(nc3ccc(OCC(=O)NN)cc13)-c1cc3c(c(=O)n1C2)COC(=O)[C@]3(O)CC` [Example 385, (S)-2-((4,11-diethyl-4-hydroxy-3,14-dioxo-3,4,12,14-tetrahydro-1H-pyrano[3′,4′:6,7]indolizino[1,2-b]quinolin-9-yl)oxy)acetohydrazide], the IC50 in the data set on Human KB cells (Homo sapiens, KB) lay within 10 to 100 nM. `CC[C@]1(O)C(=O)OCc2c1cc1n(c2=O)Cc2c-1nc1cc(F)c(C)c3c1c2[C@H](NC(=O)C(C)(C)C(=O)NN)CC3` [Example 410, N-((1R,9R)-9-ethyl-5-fluoro-9-hydroxy-4-methyl-10,13-dioxo-2,3,9,10,13,15-hexahydro-1H,12H-benzo[de]pyrano[3′,4′:6,7]indolizino[1,2-b]quinolin-1-yl)-3-hydrazineyl-2,2-dimethyl-3-oxopropanamide]: the IC50 in the data set on Human KB cells (Homo sapiens, KB) fell in the range of 10 to 100 nM. Turning to `CCc1c2c(nc3ccc(OCCCN)cc13)-c1cc3c(c(=O)n1C2)COC(=O)[C@]3(O)CC` [Example 105], the IC50 in the data set on Human KB cells (Homo sapiens, KB) was in the range of 1 to 9.9 nM.

On to `CCc1c2c(nc3ccc(Oc4nc(Cl)nc(NCCSSCCN)n4)cc13)-c1cc3c(c(=O)n1C2)COC(=O)[C@]3(O)CC` [Example 463, (S)-9-((4-((2-((2-aminoethyl)disulfaneyl)ethyl)amino)-6-chloro-1,3,5-triazin-2-yl)oxy)-4,11-diethyl-4-hydroxy-1,12-dihydro-14H-pyrano[3′,4′:6,7]indolizino[1,2-b]quinoline-3,14(4H)-dione], for which the IC50 in the data set on Human KB cells (Human KB cells, 7 days treatment, 0-1,000 nM) lay in the range of 10 to 100 nM. For the compound `CCc1c2c(nc3ccc(OCc4ccc(NC(=O)[C@H](CCCNC(N)=O)NC(=O)[C@@H](NC(=O)CCOCCOCCOCCOCCOCCOCCOCCOCCOCCOCCOCCN=[N+]=[N-])C(C)C)cc4)cc13)-c1cc3c(c(=O)n1C2)COC(=O)[C@]3(O)CC` [Example 49, 1-azido-N-((S)-1-(((S)-1-((4-((((S)-4,11-diethyl-4-hydroxy-3,14-dioxo-3,4,12,14-tetrahydro-1H-pyrano[3′,4′:6,7]indolizino[1,2-b]quinolin-9-yl)oxy)methyl)phenyl)amino)-1-oxo-5-ureidopentan-2-yl)amino)-3-methyl-1-oxobutan-2-yl)-3,6,9,12,15,18,21,24,27,30,33-undecaoxahexatriacontan-36-amide], the “% of Payload Release in 24 Hours Under Cleavage Conditions” value in data set [1] is “+ (‘+’ indicates 5-25% release)”. For `CC[C@@]1(O)C(=O)OCc2c1cc1n(c2=O)Cc2c-1nc1cc(F)c(C)c3c1c2[C@@H](NC(=O)C(=O)c1ccc(NC(=O)[C@H](CCCNC(N)=O)NC(=O)[C@@H](NC(=O)CCOCCOCCOCCOCCOCCOCCN=[N+]=[N-])C(C)C)cc1)CC3` [Example 24, 1-azido-N-((S)-1-(((S)-1-((4-(2-(((1S,9S)-9-ethyl-5-fluoro-9-hydroxy-4-methyl-10,13-dioxo-2,3,9,10,13,15-hexahydro-1H,12H-benzo[de]pyrano[3′,4′:6,7]indolizino[1,2-b]quinolin-1-yl)amino)-2-oxoacetyl)phenyl)amino)-1-oxo-5-ureidopentan-2-yl)amino)-3-methyl-1-oxobutan-2-yl)-3,6,9,12,15,18-hexaoxahenicosan-21-amide], the “% of Payload Release in 24 Hours Under Cleavage Conditions” value in data set [1] is “+ (‘+’ indicates 5-25% release)”.

In general, IC50 refers to the concentration at which inhibition is half-maximal.
